Assay results reported in patent US12077503B2, “Substituted cyclic amides and their use as herbicides” (FMC CORPORATION, priority 2015, dated 2024).

Key:
Format in all cases: in vivo
[1] = system: barnyardgrass (Echinochloa crus-galli); experiment: Test A postemergence; conditions: Echinochloa crus-galli, post-emergence, 240 h, Postemergence
In short: (§1)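 Seeded soil received test chemicals as a preemergence directed spray, and seedlings at one to two leaves, 2–10 cm tall, received them postemergence, in a non-phytotoxic, surfactant-containing solvent mixture. Pots were held in a greenhouse for approximately 10 d, then rated for injury from 0, no effect, to 100, complete control.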

corn (Zea mays) = experiment: Test A postemergence; conditions: Zea mays, post-emergence, 240 h, Postemergence, read-out: Corn plant response rating (0 to 100 scale)
In short: as §1

[2] = system: ragweed (common ragweed, Ambrosia elatior); experiment: Test A postemergence; conditions: Ambrosia artemisiifolia, post-emergence, 240 h, Postemergence, read-out: Ragweed plant response rating (0 to 100 scale)
In short: as §1

[3] = system: wheat (Triticum aestivum); experiment: Test A postemergence; conditions: Triticum aestivum, post-emergence, 240 h, Postemergence, read-out: Wheat plant response rating (0 to 100 scale)
In short: as §1

[4] = system: blackgrass (Alopecurus myosuroides); experiment: Test A postemergence; conditions: Alopecurus myosuroides, post-emergence, 240 h, Postemergence, read-out: Blackgrass plant response rating (0 to 100 scale)
In short: as §1

[5] = system: Galium (catchweed bedstraw, Galium aparine); experiment: Test A postemergence; conditions: Galium, post-emergence, 240 h, Postemergence, read-out: Galium plant response rating (0 to 100 scale)
In short: as §1

[6] = system: giant foxtail (Setaria faberii); experiment: Test A postemergence; conditions: Setaria faberi, post-emergence, 240 h, Postemergence, read-out: Foxtail, Giant plant response rating (0 to 100 scale)
In short: as §1

[7] = system: pigweed (Amaranthus retroflexus); experiment: Test A postemergence; conditions: Amaranthus retroflexus, post-emergence, 240 h, Postemergence, read-out: Pigweed plant response rating (0 to 100 scale)
In short: as §1

Kochia (Kochia scoparia) [8] = experiment: Test A postemergence; conditions: Bassia scoparia, post-emergence, 240 h, Postemergence, read-out: Kochia plant response rating (0 to 100 scale)
In short: as §1

[9] = system: ryegrass, Italian (Italian ryegrass, Lolium multiflorum); experiment: Test A postemergence; conditions: Lolium multiflorum, post-emergence, 240 h, Postemergence, read-out: Ryegrass, Italian plant response rating (0 to 100 scale)
In short: as §1

[10] = system: sedge, umbrella (small-flower umbrella sedge, Cyperus difformis); experiment: Test B flooded paddy test; conditions: Cyperus difformis, 250 g ai/ha, Flood; 0 to 100 scale where 0 is no effect and 100 is complete control; read-out: Sedge, Umbrella plant response rating
In short: (§2)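 Flooding to 3 cm over soil accompanied treatment, which consisted of adding compound to the standing water around 2-leaf plants; depth was then maintained. Visual assessment versus controls followed at 13 to 15 d (scale 0–100, 0 meaning no effect).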

[11] = system: barnyardgrass (Echinochloa crus-galli); experiment: Test B flooded paddy test; conditions: Echinochloa crus-galli, 250 g ai/ha, Flood; 0 to 100 scale where 0 is no effect and 100 is complete control; read-out: Barnyardgrass plant response rating
In short: as §2

[12] = system: ducksalad (Heteranthera limosa); experiment: Test B flooded paddy test; conditions: Heteranthera limosa, 250 g ai/ha, Flood; 0 to 100 scale where 0 is no effect and 100 is complete control; read-out: Ducksalad plant response rating
In short: as §2

rice (Oryra sativa) = experiment: Test B flooded paddy test; conditions: Oryza sativa, 250 g ai/ha, Flood; 0 to 100 scale where 0 is no effect and 100 is complete control; read-out: Rice plant response rating
In short: as §2

[13] = system: barnyardgrass (Echinochloa crus-galli); experiment: Test A preemergence; conditions: Echinochloa crus-galli, pre-emergence, 240 h, 0 to 100 scale where 0 is no effect and 100 is complete control, read-out: Barnyardgrass plant response rating
In short: as §1

[14] = system: ragweed (common ragweed, Ambrosia elatior); experiment: Test A preemergence; conditions: Ambrosia artemisiifolia, pre-emergence, 240 h, 0 to 100 scale where 0 is no effect and 100 is complete control, read-out: Ragweed plant response rating
In short: as §1

[15] = system: giant foxtail (Setaria faberii); experiment: Test A preemergence; conditions: Setaria faberi, pre-emergence, 240 h, 0 to 100 scale where 0 is no effect and 100 is complete control, read-out: Foxtail, Giant plant response rating
In short: as §1

[16] = system: pigweed (Amaranthus retroflexus); experiment: Test A preemergence; conditions: Amaranthus retroflexus, pre-emergence, 240 h, 0 to 100 scale where 0 is no effect and 100 is complete control, read-out: Pigweed plant response rating
Kochia (Kochia scoparia) [17] = experiment: Test A preemergence; conditions: Bassia scoparia, pre-emergence, 240 h, 0 to 100 scale where 0 is no effect and 100 is complete control, read-out: Kochia plant response rating
In short: as §1

[18] = system: ryegrass, Italian (Italian ryegrass, Lolium multiflorum); experiment: Test A preemergence; conditions: Lolium multiflorum, pre-emergence, 240 h, 0 to 100 scale where 0 is no effect and 100 is complete control, read-out: Ryegrass, Italian plant response rating
In short: as §1

[19] = 125 g ai/ha, visual rating about 10 d after treatment
[20] = 31 g ai/ha, 0 is no effect, 100 is complete control
[21] = 125 g ai/ha, preemergence, visual injury rating, approximately 10 d

In the case of `O=C1NC[C@H](c2cccc(C(F)(F)F)c2)[C@H]1C(=O)Nc1ccccc1-n1cncn1` [Compound 1290], the pest or weed control at 125 g/ha ([1]; 125 g ai/ha, visual rating about 10 d after treatment, read-out: Barnyardgrass plant response rating (0 to 100 scale, 0 no effect, 100 complete control)) is reported as 0%, the pest or weed control at 31 g/ha ([1]; 31 g ai/ha, 0 is no effect, 100 is complete control, read-out: Barnyardgrass plant response rating (0 to 100 scale)) is reported as 0% and the plant injury at 125 g/ha (corn (Zea mays); [19]) is reported as 0%. For the same compound, the plant injury at 31 g/ha (corn (Zea mays); [20]) was 0%, the pest or weed control at 125 g/ha [2, 19] was 0% and the pest or weed control at 31 g/ha [2, 20] was 0%. It also gave a plant injury at 125 g/ha [3, 19] of 0%, a plant injury at 31 g/ha [3, 20] of 0% and a pest or weed control at 125 g/ha [4, 19] of 0%. The pest or weed control at 31 g/ha [4, 20] was 0%, the pest or weed control at 125 g/ha [5, 19] was 0% and the pest or weed control at 31 g/ha [5, 20] was 0%. The pest or weed control at 125 g/ha [6, 19] was 0%, the pest or weed control at 31 g/ha [6, 20] was 0% and the pest or weed control at 125 g/ha [7, 19] was 0%. For the same compound, the pest or weed control at 31 g/ha [7, 20] was 0%, the pest or weed control at 125 g/ha (Kochia (Kochia scoparia) [8]; [19]) was 0% and the pest or weed control at 31 g/ha (Kochia (Kochia scoparia) [8]; [20]) was 0%. For the same compound, the pest or weed control at 125 g/ha [9, 19] was 0%, the pest or weed control at 31 g/ha [9, 20] was 0% and the pest or weed control at 250 g/ha [10] was 0%. The pest or weed control at 250 g/ha [11] was 0%, the pest or weed control at 250 g/ha [12] was 0% and the pest or weed control at 250 g/ha (rice (Oryra sativa)) was 10%. It also gave a pest or weed control at 31 g/ha ([13]; 31 g ai/ha, Preemergence) of 0%, a pest or weed control at 125 g/ha [13, 21] of 0% and a pest or weed control at 31 g/ha ([14]; 31 g ai/ha, Preemergence) of 0%. It also gave a pest or weed control at 125 g/ha [14, 21] of 0%, a pest or weed control at 31 g/ha ([15]; 31 g ai/ha, Preemergence) of 0% and a pest or weed control at 125 g/ha [15, 21] of 0%. The pest or weed control at 31 g/ha ([16]; 31 g ai/ha, Preemergence) was 0%, the pest or weed control at 125 g/ha [16, 21] was 0% and the pest or weed control at 31 g/ha (Kochia (Kochia scoparia) [17]; 31 g ai/ha, Preemergence) was 0%. For the same compound, the pest or weed control at 125 g/ha (Kochia (Kochia scoparia) [17]; [21]) was 0%, the pest or weed control at 31 g/ha ([18]; 31 g ai/ha, Preemergence) was 0% and the pest or weed control at 125 g/ha [18, 21] was 0%.
